Data from the supplement of paper PMC10307832.

What was measured:
Assay in all cases: relative viability (nuclei count vs DMSO), 5 days (fraction); higher = more cells survive
KIN001-266 + Phenformin = compound: CCN1CCC(CC1)N2C=C(N=N2)CNC3=CC4=C(C(=CN=C4C(=C3)Cl)C#N)NC5=CC(=C(C=C5)F)Cl [KIN001-266] + N=C(N)NC(=N)NCCc1ccccc1 [Phenformin] (partner 250 µM)
Method in brief: (§1)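 Lung cancer cell lines in 1536-well plates got either a single drug or a fixed anchor-drug dose together with five library-drug doses (not always all listed) in √10 steps, by pin tool, on the day after seeding. Nuclei were counted after 5 days, and relative viability is the treated-to-vehicle ratio of nuclei counts. Values are medians of duplicate plates.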

KIN001-266 + Palbociclib = compound: CCN1CCC(CC1)N2C=C(N=N2)CNC3=CC4=C(C(=CN=C4C(=C3)Cl)C#N)NC5=CC(=C(C=C5)F)Cl [KIN001-266] + CC(=O)c1c(C)c2cnc(Nc3ccc(N4CCNCC4)cn3)nc2n(C2CCCC2)c1=O [Palbociclib] (partner 0.5 µM)
Method in brief: as §1

KIN001-266 + Pictilisib = compound: CCN1CCC(CC1)N2C=C(N=N2)CNC3=CC4=C(C(=CN=C4C(=C3)Cl)C#N)NC5=CC(=C(C=C5)F)Cl [KIN001-266] + CS(=O)(=O)N1CCN(Cc2cc3nc(-c4cccc5[nH]ncc45)nc(N4CCOCC4)c3s2)CC1 [Pictilisib] (partner 1 µM)
Method in brief: as §1

KIN001-266 + Decitabine = compound: CCN1CCC(CC1)N2C=C(N=N2)CNC3=CC4=C(C(=CN=C4C(=C3)Cl)C#N)NC5=CC(=C(C=C5)F)Cl [KIN001-266] + Nc1ncn([C@H]2C[C@H](O)[C@@H](CO)O2)c(=O)n1 [Decitabine] (partner 2 µM)
Method in brief: as §1

| Cell Line | relative viability (KIN001-266 + Phenformin; first compound 0.08 µM) | relative viability (KIN001-266 + Phenformin; first compound 0.253 µM) | relative viability (KIN001-266 + Phenformin; first compound 0.8 µM) | relative viability (KIN001-266 + Phenformin; first compound 2.53 µM) | relative viability (KIN001-266 + Phenformin; first compound 8 µM) | relative viability (KIN001-266 + Palbociclib; first compound 0.08 µM) | relative viability (KIN001-266 + Palbociclib; first compound 0.253 µM) | relative viability (KIN001-266 + Palbociclib; first compound 0.8 µM) | relative viability (KIN001-266 + Palbociclib; first compound 2.53 µM) | relative viability (KIN001-266 + Palbociclib; first compound 8 µM) | relative viability (KIN001-266 + Pictilisib; first compound 0.08 µM) | relative viability (KIN001-266 + Pictilisib; first compound 0.253 µM) | relative viability (KIN001-266 + Pictilisib; first compound 0.8 µM) | relative viability (KIN001-266 + Pictilisib; first compound 2.53 µM) | relative viability (KIN001-266 + Pictilisib; first compound 8 µM) | relative viability (KIN001-266 + Decitabine; first compound 0.08 µM) | relative viability (KIN001-266 + Decitabine; first compound 0.253 µM) | relative viability (KIN001-266 + Decitabine; first compound 0.8 µM) | relative viability (KIN001-266 + Decitabine; first compound 2.53 µM) | relative viability (KIN001-266 + Decitabine; first compound 8 µM) |
| --- | --- | --- | --- | --- | --- | --- | --- | --- | --- | --- | --- | --- | --- | --- | --- | --- | --- | --- | --- | --- |
| LOU-NH91 | 0.716 | 0.737 | 0.489 | 0.637 | 0.552 | 0.526 | 0.544 | 0.509 | 0.525 | 0.53 | 0.542 | 0.533 | 0.443 | 0.469 | 0.505 | 0.796 | 0.82 | 0.728 | 0.767 | 0.701 |
| LU99A | 0.971 | 0.805 | 0.815 | 0.649 | 0.682 | 0.441 | 0.413 | 0.358 | 0.373 | 0.364 | 0.325 | 0.338 | 0.319 | 0.3 | 0.284 | 0.976 | 1.01 | 0.9 | 0.613 | 0.607 |
| NCI-H1395 | 0.453 | 0.421 | 0.503 | 0.417 | 0.442 | 0.671 | 0.614 | 0.648 | 0.602 | 0.616 | 0.693 | 0.843 | 0.614 | 0.522 | 0.575 | 0.731 | 0.687 | 0.75 | 0.687 | 0.758 |
| NCI-H460 | 0.499 | 0.506 | 0.528 | 0.475 | 0.433 | 0.175 | 0.161 | 0.263 | 0.176 | 0.153 | 0.5 | 0.339 | 0.308 | 0.355 | 0.302 | 0.483 | 0.477 | 0.475 | 0.433 | 0.438 |
| 201T | 0.449 | 0.45 | 0.386 | 0.457 | 0.434 | 0.342 | 0.366 | 0.35 | 0.361 | 0.359 | 0.768 | 0.746 | 0.662 | 0.64 | 0.721 | 0.848 | 0.885 | 0.868 | 0.78 | 0.842 |
| NCI-H1944 | 0.208 | 0.194 | 0.186 | 0.199 | 0.164 | 0.338 | 0.355 | 0.319 | 0.361 | 0.351 | 0.363 | 0.363 | 0.333 | 0.356 | 0.352 | 0.421 | 0.459 | 0.401 | 0.415 | 0.393 |
| NCI-H2405 | 0.401 | 0.412 | 0.378 | 0.379 | 0.155 | 0.525 | 0.567 | 0.551 | 0.467 | 0.441 | 0.384 | 0.412 | 0.449 | 0.288 | 0.347 | 0.772 | 0.78 | 0.783 | 0.694 | 0.627 |
| NCI-H1755 | 0.643 | 0.62 | 0.625 | 0.621 | 0.549 | 0.43 | 0.447 | 0.432 | 0.443 | 0.413 | 0.463 | 0.447 | 0.387 | 0.458 | 0.398 | 0.67 | 0.735 | 0.647 | 0.654 | 0.707 |
